Laboratory results: publication PMC11509018, “Evaluation of the Role of Tanshinone I in an In Vitro System of Charcot-Marie-Tooth Disease Type 2N” (International Journal of Molecular Sciences, 2024)
Where a chain is given by its changes, count along the chain named.

How the values were obtained:
AlaRS^G102R = target: T1, AlaRS^G102R (Homo sapiens, UniProt P49588, G102R); experiment: Biolayer interferometry (BLI); format: binding; settings: immobilized AlaRS^G102R, mean ± SD, triplicate
T1 construct: made in house; host or cells: E. coli BL21 (DE3), pET-21a
T1 sequence (P49588 1-968 G102R): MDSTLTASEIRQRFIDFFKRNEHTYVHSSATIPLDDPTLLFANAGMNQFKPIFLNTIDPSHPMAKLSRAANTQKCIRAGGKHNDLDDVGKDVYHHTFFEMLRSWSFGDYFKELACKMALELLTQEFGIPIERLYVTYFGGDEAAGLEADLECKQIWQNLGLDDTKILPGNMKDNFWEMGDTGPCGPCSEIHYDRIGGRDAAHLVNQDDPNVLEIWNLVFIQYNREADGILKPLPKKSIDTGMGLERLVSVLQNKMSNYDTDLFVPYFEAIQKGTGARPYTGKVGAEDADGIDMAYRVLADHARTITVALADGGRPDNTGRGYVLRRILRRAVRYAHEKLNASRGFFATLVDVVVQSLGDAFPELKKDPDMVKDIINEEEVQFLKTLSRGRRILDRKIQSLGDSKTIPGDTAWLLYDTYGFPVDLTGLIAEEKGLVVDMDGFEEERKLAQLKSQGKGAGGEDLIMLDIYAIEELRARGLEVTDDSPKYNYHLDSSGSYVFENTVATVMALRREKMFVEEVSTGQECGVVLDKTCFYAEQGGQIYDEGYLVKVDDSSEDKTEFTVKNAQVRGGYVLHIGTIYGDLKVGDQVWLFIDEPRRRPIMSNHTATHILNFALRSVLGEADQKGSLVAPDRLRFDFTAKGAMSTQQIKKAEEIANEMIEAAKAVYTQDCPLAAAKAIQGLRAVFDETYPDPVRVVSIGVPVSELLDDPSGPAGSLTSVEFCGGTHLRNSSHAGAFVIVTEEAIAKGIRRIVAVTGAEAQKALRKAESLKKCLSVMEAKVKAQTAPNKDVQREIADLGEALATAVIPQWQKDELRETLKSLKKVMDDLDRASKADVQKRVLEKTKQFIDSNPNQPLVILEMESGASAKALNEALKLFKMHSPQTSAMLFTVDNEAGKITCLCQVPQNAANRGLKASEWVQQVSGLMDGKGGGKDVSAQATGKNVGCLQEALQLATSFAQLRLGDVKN
Description: (§1) Furthermore, we examined the interaction of Tanshinone I with additional AlaRS CMT mutants capable of binding to Nrp1 and causing conformational changes by BLI and proteolysis assays on additional related mutants. […] To further quantify the binding of small molecules to mutant proteins, binding experiments with AlaRS^R329H proteins and small molecules were conducted using an Octet R8 system (ForteBio, Fremont, CA, USA). Purified His-tagged AlaRS^R329H proteins (500 μg/mL) were captured on Ni-NTA biosensors (ForteBio, Fremont, CA, USA), achieving a saturation response of 4–5 nm after 300 s. The biosensors were then transferred to Octet buffer (PBS with 0.01% Tween 20) for 180 s to remove loosely bound, nonspecific proteins and to establish a stable baseline. Following this, the sensors were immersed in diluted Tanshinone I (2.5–100 μM in assay buffer) for 120 s to record the association signal, and then transferred back into Octet buffer to monitor the dissociation signal for 120 s. Reference wells containing buffer instead of Tanshinone I were included to correct for baseline shifts. Additionally, a parallel set of Ni-NTA sensors in buffer served as negative reference controls to account for nonspecific binding of the compounds to the biosensor surface. The data were processed using a double reference subtraction protocol to eliminate nonspecific signals, background noise, and signal drifts caused by biosensor variability. All assays were performed in 96-well black plates with a total volume of 200 μL per well at 30 °C. Data analysis, including correction and curve fitting, was carried out using Octet® Analysis Studio 12.2.2.26. The experiment was repeated three times.

AlaRS^R326W = target: T2, AlaRS^R326W (Homo sapiens, UniProt P49588, R326W); experiment: Biolayer interferometry (BLI); format: binding; settings: immobilized AlaRS^R326W, mean ± SD, triplicate
T2 construct: made in house; host or cells: E. coli BL21 (DE3), pET-21a
T2 sequence (P49588 1-968 R326W): T1 sequence (P49588 1-968 G102R) with R102G, R326W
Description: as §1

Cc1coc2c1C(=O)C(=O)c1c-2ccc2c(C)cccc12 [Tanshinone I]
Kd (AlaRS^G102R): 31.2 ± 11.9 µM | Kd (AlaRS^R326W): 39.6 ± 6.4 µM
